Marks after values point to notes of the source that are not given here.
Experiments:
Assay type in all cases: in vivo, human
[1] = tested on: patients with moderate to severe active rheumatoid arthritis; test: Phase II RA study, Cohort 2 (inadequate response or intolerance to TNF therapy): clinical efficacy; conditions: Cohort 2, 200 mg BID
Source text: A Two-Cohort Randomized Phase II, Double-Blind, Parallel Group Study in Patients with Active Rheumatoid Arthritis Evaluating the Efficacy and Safety of Fenebrutinib Compared with Placebo and Adalimumab in Patients with an Inadequate Response to Previous Methotrexate Therapy (Cohort 1) and Compared with Placebo in Patients with an Inadequate Response or Intolerance to Previous TNF Therapy (Cohort 2)
The study was a multicenter, Phase II, randomized, double-blind, placebo-controlled, active comparator (Cohort 1 only), parallel-group, dose-ranging study to evaluate the efficacy and safety of fenebrutinib in patients with moderate to severe active RA and an inadequate response to previous MTX therapy (Cohort 1) or MTX and TNF therapy who may have also had exposure to no more than one non-TNF inhibitor biologic (Cohort 2). Moderate to severe active RA was defined by ≥6 tender/painful joints on motion (68 joint count) and ≥6 swollen joints (66 joint count) at both screening and Day 1 (randomization), as well as a high sensitivity C-reactive protein (hsCRP)≥0. 400 mg/dL for Cohort 1 a hsCRP≥0.650 mg/dL for Cohort 2 at screening.
The study enrolled 578 patients. In Cohort 1, 480 MTX-IR patients were randomized to placebo (110 patients), ADA (111 patients), or one of three doses of fenebrutinib: 50 mg QD (40 patients), 150 mg QD (109 patients), or 200 mg BID (110 patients). In Cohort 2, 98 TNF-IR patients were randomized to placebo or 200 mg BID fenebrutinib. […]
ACR Assessments. The ACR's definition for calculating improvement in RA (ACR20) is calculated as a 20% improvement in tender and swollen joint counts and a 20% improvement in 3 of the 5 remaining ACR-core set measures: patient and physician global assessments, pain, disability, and an acute-phase reactant. Similarly, ACR50 and ACR70 are calculated with the respective percent improvements. […]

Total IgM = test: RA study biomarker: total IgM
Experimental: […] The biomarkers evaluated in this assessment were chemokine [C-C motif] ligand 4 (CCL4), IL-6, and TNF-like cytokine 1A (TL1A). Total IgM, IgG, rheumatoid factor IgM autoantibody (RF), CCL4, TL1A, IL-6, and anti-CCP autoantibody (ACPA IgG) levels were analyzed with immunoassays. CD19^+ B cells and CD3^+ T cells were measured by flow cytometry. The proportion of patients achieving an ACR50 response at week 12 and the change in DAS28 score by week 12 were assessed relative to seropositivity (RF and/or ACPA positive at baseline) or baseline levels of RF in both cohorts. To select which biomarkers to evaluate in this trial, BTK-dependent myeloid biomarkers were identified using peripheral blood CD14^+ monocytes stimulated with immune-complexes in the presence or absence of a BTK inhibitor. In brief, the expression levels of genes in human monocytes were assayed under conditions of no stimulation; with human serum albumin immune complex stimulation; with stimulation and a low concentration of a BTK inhibitor with similar characteristics to fenebrutinib; or with stimulation and a high concentration of the BTK inhibitor. […] Genes annotated with cytokine activity were selected. The color bar represents normalized gene expression.

CD3+ T cells = test: RA study: CD3+ T cells (flow cytometry); conditions: cohort 1 and cohort 2, week 1
Experimental: Biomarkers were evaluated in serum or plasma samples at baseline and weeks 1, 4, and 12 in patients with available samples (cohort 1: n=438; cohort 2: n=86). The biomarkers evaluated in this assessment were chemokine [C-C motif] ligand 4 (CCL4), IL-6, and TNF-like cytokine 1A (TL1A). Total IgM, IgG, rheumatoid factor IgM autoantibody (RF), CCL4, TL1A, IL-6, and anti-CCP autoantibody (ACPA IgG) levels were analyzed with immunoassays. CD19^+ B cells and CD3^+ T cells were measured by flow cytometry. The proportion of patients achieving an ACR50 response at week 12 and the change in DAS28 score by week 12 were assessed relative to seropositivity (RF and/or ACPA positive at baseline) or baseline levels of RF in both cohorts. To select which biomarkers to evaluate in this trial, BTK-dependent myeloid biomarkers were identified using peripheral blood CD14^+ monocytes stimulated with immune-complexes in the presence or absence of a BTK inhibitor. In brief, the expression levels of genes in human monocytes were assayed under conditions of no stimulation; with human serum albumin immune complex stimulation; with stimulation and a low concentration of a BTK inhibitor with similar characteristics to fenebrutinib; or with stimulation and a high concentration of the BTK inhibitor. […] Genes annotated with cytokine activity were selected. The color bar represents normalized gene expression.

C[C@H]1CN(C2COC2)CCN1c1ccc(Nc2cc(-c3ccnc(N4CCn5c(cc6c5CC(C)(C)C6)C4=O)c3CO)cn(C)c2=O)nc1 [fenebrutinib, (S)-2-(3′-(hydroxymethyl)-1-methyl-5-((5-(2-methyl-4-(oxetan-3-yl)piperazin-1-yl)pyridin-2-yl)amino)-6-oxo-1,6-dihydro-[3,4′-bipyridin]-2′-yl)-7,7-dimethyl-2,3,4,6,7,8-hexahydro-1H-cyclopenta[4,5]pyrrolo[1,2-a]pyrazin-1-one]
DAS 28-3 (CRP) Adjusted Mean ([1]; Week 12): −1.96 | ACR50 Weighted Difference vs Placebo ([1]; Week 12 Day 84): 13.85 | DAS 28-3 (CRP) Difference (d) ([1]; versus placebo, Week 12): −0.76 | Total IgM Reduction as % of Baseline (Total IgM; Cohort 1, 50 mg QD, Week 4): 94% | Total IgM Reduction as % of Baseline (Total IgM; Cohort 1, 50 mg QD, Week 8): 91%* | Total IgM Reduction as % of Baseline (Total IgM; Cohort 1, 50 mg QD, Week 12): 88%* | Total IgM Reduction as % of Baseline (Total IgM; Cohort 1, 150 mg QD, Week 4): 91%* | Total IgM Reduction as % of Baseline (Total IgM; Cohort 1, 150 mg QD, Week 8): 88%* | Total IgM Reduction as % of Baseline (Total IgM; Cohort 1, 150 mg QD, Week 12): 86%* | Total IgM Reduction as % of Baseline (Total IgM; Cohort 1, 200 mg BID, Week 4): 92%* | Total IgM Reduction as % of Baseline (Total IgM; Cohort 1, 200 mg BID, Week 8): 86%* | Total IgM Reduction as % of Baseline (Total IgM; Cohort 1, 200 mg BID, Week 12): 84%* | Total IgM absolute reduction relative to placebo (Total IgM; cohort 1, 200 mg twice daily, by week 12): -22 mg/dL | Total IgM reduction relative to placebo (Total IgM; cohort 2, 200 mg twice daily, by week 12): -17 mg/dL | CD3+ T cells relative to placebo (CD3+ T cells): +10-15%
